Measurements taken from ChEMBL document CHEMBL1201862, “PubChem BioAssay data set” (2004).
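Each compound was tested at five concentrations against cells in 96-well plates for 48 hours. GI50 marks 50% less growth.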 Active and inactive are the calls of the source. No stated cut-off is given here; in the data, active = GI50 up to about 1.1 µM and inactive = higher.

Tests used:
Test in all cases: NCI tumour cell line growth inhibition, 48 h
UACC-257 = test system: UACC-257
OVCAR-3 = test system: OVCAR-3
HCT-116 = test system: HCT-116
U-251 = test system: U-251
SF-539 = test system: SF-539
SK-MEL-2 = test system: SK-MEL-2
DU-145 = test system: DU-145
HOP-62 = test system: HOP-62
CAKI-1 = test system: CAKI-1
IGROV-1 = test system: IGROV-1
PC-3 = test system: PC-3
MCF7 = test system: MCF7
K562 = test system: K562
HCT-15 = test system: HCT-15
A549 = test system: A549
RXF 393 = test system: RXF 393
TK-10 = test system: TK-10
LOX IMVI = test system: LOX IMVI

Row | Structure (SMILES) | GI50 (UACC-257) | GI50 (OVCAR-3) | GI50 (HCT-116) | GI50 (U-251) | GI50 (SF-539) | GI50 (SK-MEL-2) | GI50 (DU-145) | GI50 (HOP-62) | GI50 (CAKI-1) | GI50 (IGROV-1) | GI50 (PC-3) | GI50 (MCF7) | GI50 (K562) | GI50 (HCT-15) [µM] | GI50 (A549) | GI50 (RXF 393) | GI50 (TK-10) | GI50 (LOX IMVI)
1 | Cc1cc2nn(C3CCCO3)nc2cc1C (stereo not drawn) | > 100 µM (inactive) | > 100 µM (inactive) | > 100 µM (inactive) | > 100 µM (inactive) | > 100 µM (inactive) | > 100 µM (inactive) | > 100 µM (inactive) | > 100 µM (inactive) | > 100 µM (inactive) | > 100 µM (inactive) | > 100 µM (inactive) | > 100 µM (inactive) | > 100 µM (inactive) | > 100 | > 100 µM (inactive) | > 100 µM (inactive) | > 100 µM (inactive) | –
2 | CCOC(=O)C(C#N)C1=CC(=O)C(=O)c2ccc(O)cc21 (stereo not drawn) | 31.9 µM (inactive) | 64 µM (inactive) | 55.1 µM (inactive) | 48.5 µM (inactive) | 55.3 µM (inactive) | 23.2 µM (inactive) | > 100 µM (inactive) | > 100 µM (inactive) | > 100 µM (inactive) | 78 µM (inactive) | > 100 µM (inactive) | > 100 µM (inactive) | > 100 µM (inactive) | > 100 | > 100 µM (inactive) | > 100 µM (inactive) | > 100 µM (inactive) | 36.7 µM (inactive)
3 | CC1=C(C#N)C2C(=C(C)N1)C(N)=Nc1ccccc12 (stereo not drawn) | 99.5 µM (inactive) | 28.4 µM (inactive) | 32.6 µM (inactive) | – | 29.7 µM (inactive) | 81.8 µM (inactive) | 88.7 µM (inactive) | 67.3 µM (inactive) | 49.8 µM (inactive) | 29.9 µM (inactive) | 29.6 µM (inactive) | 80.5 µM (inactive) | – | 85.5 | 73.1 µM (inactive) | 38 µM (inactive) | 46.8 µM (inactive) | 36 µM (inactive)
4 | CC(C)(NC1=NCCO1)c1ccccc1 | > 100 µM (inactive) | > 100 µM (inactive) | > 100 µM (inactive) | > 100 µM (inactive) | > 100 µM (inactive) | > 100 µM (inactive) | > 100 µM (inactive) | > 100 µM (inactive) | > 100 µM (inactive) | > 100 µM (inactive) | > 100 µM (inactive) | > 100 µM (inactive) | – | > 100 | > 100 µM (inactive) | > 100 µM (inactive) | > 100 µM (inactive) | > 100 µM (inactive)
5 | O=C1Nc2ccc(Br)cc2/C1=N/N1C(=O)C(=O)N(C2CCCCC2)C1=S | 9.55 µM (inactive) | 2.47 µM (inactive) | 2.72 µM (inactive) | 2.93 µM (inactive) | 5.66 µM (inactive) | 1.41 µM (inactive) | 9.42 µM (inactive) | 2.92 µM (inactive) | 3.1 µM (inactive) | – | 3.52 µM (inactive) | 4.17 µM (inactive) | 3.69 µM (inactive) | 2.42 | 5.26 µM (inactive) | 10 µM (inactive) | 12.2 µM (inactive) | 4.07 µM (inactive)
6 | CCOC(=O)/C(C(=S)NC)=C(/N)N1CCCC1 | > 100 µM (inactive) | > 100 µM (inactive) | > 100 µM (inactive) | > 100 µM (inactive) | > 100 µM (inactive) | > 100 µM (inactive) | > 100 µM (inactive) | > 100 µM (inactive) | 77.1 µM (inactive) | > 100 µM (inactive) | > 100 µM (inactive) | – | > 100 µM (inactive) | > 100 | > 100 µM (inactive) | > 100 µM (inactive) | > 100 µM (inactive) | > 100 µM (inactive)
7 | CCOC(=O)CCC(NC(=O)c1ccc(Oc2nc3ccccc3nc2-c2ccccc2)cc1)C(=O)OCC (stereo not drawn) | > 100 µM (inactive) | 15.4 µM (inactive) | 12.9 µM (inactive) | 15.1 µM (inactive) | 3.6 µM (inactive) | 31.5 µM (inactive) | 41 µM (inactive) | 11.2 µM (inactive) | 19.5 µM (inactive) | 35.4 µM (inactive) | 92.9 µM (inactive) | > 100 µM (inactive) | > 60.4 µM (inactive) | > 100 | 37.8 µM (inactive) | 20.1 µM (inactive) | 17.5 µM (inactive) | 43.7 µM (inactive)
8 | Cc1c(C(=O)O)n2c(S)nnc2c2ccccc12 | > 100 µM (inactive) | > 100 µM (inactive) | > 100 µM (inactive) | > 100 µM (inactive) | > 100 µM (inactive) | > 100 µM (inactive) | > 100 µM (inactive) | > 100 µM (inactive) | > 100 µM (inactive) | > 100 µM (inactive) | > 100 µM (inactive) | > 100 µM (inactive) | > 100 µM (inactive) | > 100 | > 100 µM (inactive) | > 100 µM (inactive) | > 100 µM (inactive) | > 100 µM (inactive)
